Test results from publication PMC10762035, “Molecular basis of human trace amine-associated receptor 1 activation” (Nature Communications, 2024).
Changes are numbered by the printed parent chain. “And” between values parts separate entries of the source, which are not always exact repeats. Identical values can stand only once. Like-named read-outs stand apart in the source and are kept apart here.

Columns and labels:
[1] = molecular target: T1, hTA1 R83H (Homo sapiens, UniProt Q96RJ0, R83H); experiment: GloSensor cAMP accumulation assay, R83H mutant; type: cell-based;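 also: cells transiently co-expressing hTA1 and a cAMP GloSensor, luminescence read 30 min after agonist addition at room temperature, concentration–response fitted by non-linear regression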
T1 construct: expressed in transfected cells; host or cells: HEK293T
T1 sequence (Q96RJ0 1-339 R83H): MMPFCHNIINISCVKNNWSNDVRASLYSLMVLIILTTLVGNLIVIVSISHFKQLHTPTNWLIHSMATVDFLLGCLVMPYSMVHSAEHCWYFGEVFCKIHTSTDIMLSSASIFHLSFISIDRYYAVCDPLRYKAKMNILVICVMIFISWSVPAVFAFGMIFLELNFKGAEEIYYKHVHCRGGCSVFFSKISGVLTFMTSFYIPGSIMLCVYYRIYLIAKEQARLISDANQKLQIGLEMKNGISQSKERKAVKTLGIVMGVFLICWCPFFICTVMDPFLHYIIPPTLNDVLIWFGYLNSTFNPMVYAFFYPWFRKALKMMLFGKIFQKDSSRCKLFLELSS

[2] = molecular target: T2, hTA1 T194A (Homo sapiens, UniProt Q96RJ0, T194A); experiment: GloSensor cAMP accumulation assay, T194A mutant; details: for cAMP accumulation response, individual replicate values of the concentration-response curve: hTA1 T194A, log[Agonist], Supplementary Figure 5 source data
T2 sequence (Q96RJ0 1-339 T194A): T1 sequence (Q96RJ0 1-339 R83H) with H83R, T194A

[3] = molecular target: T3, hTA1 b2N (Homo sapiens, UniProt Q96RJ0); experiment: GloSensor cAMP accumulation assay, b2N construct; type: cell-based; details: b2N, n=2
T3 construct: read by me as the first 25 residues of β2AR (N); expressed in transfected cells; host or cells: HEK293T
T3 sequence (Q96RJ0 with tags, fused parts or gaps): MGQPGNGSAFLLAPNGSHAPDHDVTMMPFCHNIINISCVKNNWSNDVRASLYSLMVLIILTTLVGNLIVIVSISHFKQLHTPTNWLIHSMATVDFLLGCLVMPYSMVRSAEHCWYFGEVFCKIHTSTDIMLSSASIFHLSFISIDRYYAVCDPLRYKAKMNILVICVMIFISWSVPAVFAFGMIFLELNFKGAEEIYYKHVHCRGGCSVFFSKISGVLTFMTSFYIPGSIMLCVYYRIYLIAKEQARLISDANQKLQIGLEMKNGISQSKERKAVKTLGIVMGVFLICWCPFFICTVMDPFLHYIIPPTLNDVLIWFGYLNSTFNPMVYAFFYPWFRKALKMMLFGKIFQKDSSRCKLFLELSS

[4] = molecular target: T4, hTA1 C178S (Homo sapiens, UniProt Q96RJ0, C178S); experiment: GloSensor cAMP accumulation assay, C178S mutant; type: cell-based; details: for C178S - Normalized Luminescence Counts (N=2): log[Compound], single replicates
T4 construct: expressed in transfected cells; host or cells: HEK293T
T4 sequence (Q96RJ0 1-339 C178S): T1 sequence (Q96RJ0 1-339 R83H) with H83R, C178S

Compound: NCCc1ccc(O)cc1 [TYR, tyramine]
- ΔEmax values (each mutant value - WT average) ([1]; R83H mutant minus WT average): -13.6885
- EC50 ([1]; R83H mutant, each line an independent experiment, 3 replicates, read-out: pEC50 values (Mean) (converted)): 5330 nM
- Emax ([1]; R83H mutant, β-PEA = 100, each line an independent experiment, 3 replicates, read-out: Emax values (Mean)): 85.3%
- EC50 ([1]; R83H, n=2, read-out: EC50): 31400 nM
- Emax values, Mean ([2]; T149A (so in the source), single experiments (3 replicates each), β-PEA = 100): 107.638 and 114.006 and 104.682
- increase in potency vs wild type ([2]; T194A): over 10 fold
- cAMP accumulation response, individual replicate values of the concentration-response curve ([2]; M = -7.522): 49.8086 and 42.1239 and 66.6609 and 74.3619 and 75.9423 and 70.8058 and 84.4051 and 77.1239 and 72.2846
- cAMP accumulation response, individual replicate values of the concentration-response curve ([2]; M = -8): 33.9 and 32.0125 and 38.7535 and 48.6794 and 43.1478 and 39.7894 and 64.0267 and 60.8745 and 66.5574
- cAMP accumulation response, individual replicate values of the concentration-response curve ([2]; M = -8.522): 15.6995 and 22.1708 and 14.0817 and 16.28 and 19.441 and 18.4532 and 29.6632 and 30.1959 and 31.2615
- cAMP accumulation response, individual replicate values of the concentration-response curve ([2]; M = -9): 1.409 and 7.206 and 6.936 and 8.575 and 6.7973 and 9.5631 and 13.5914 and 13.9909 and 14.0797
- cAMP accumulation response, individual replicate values of the concentration-response curve ([2]; M = -9.522): 1.813 and 2.083 and -1.153 and 1.068 and 2.253 and 1.463 and 4.046 and 5.511 and 3.469
- cAMP accumulation response, individual replicate values of the concentration-response curve ([2]; M = -10): -1.827 and -1.288 and -1.4224 and 2.056 (2×) and 1.661 and 1.693 and 1.604 and 1.782
- cAMP accumulation response, individual replicate values of the concentration-response curve ([2]; M = -10.522): -1.827 and -0.7483 and -1.153 and 0.2779 and -0.3148 and -0.1172 and 1.027 and 0.8937 (2×)
- cAMP accumulation response, individual replicate values of the concentration-response curve ([2]; M = -11): -0.4787 and -1.692 and -1.153 and 0.2779 and -1.105 and -1.303 and -0.971 and 0.4497 and 0.1834
- cAMP accumulation response, individual replicate values of the concentration-response curve ([2]; M = -11.522): -1.557 and 0.8695 and -1.4224 and -1.105 (2×) and -0.7099 and 0.09457 and 0.05017 and 0.4053
- cAMP accumulation response, individual replicate values of the concentration-response curve ([2]; M = -12): -0.7483 (2×) and -1.288 and -0.9074 (2×) and -0.3148 and -0.4826 and -0.1718 and -0.2162
- cAMP accumulation response, individual replicate values of the concentration-response curve ([2]; M = -12.522): -0.07421 and 1.139 and 0.4651 and -1.105 (2×) and -0.5123 and -0.08302 and -0.2606 and 0.005772
- EC50 ([2]; pEC50 values, Mean, T149A (so in the source), single experiments (3 replicates each)): 8.01 nM and 26.8 nM and 14.3 nM
- EC50 ([2]; pEC50 ± SEM, T194A): 14.5 nM
- Emax ([2]; read-out: Span ± SEM (Emax normalized to β-PEA), T194A): 109 ± 4.66%
- EC50 ([3]; read-out: EC50): 151 nM
- Emax ([3]; read-out: Span ± SEM (Emax normalized to β-PEA)): 99.5 ± 1%
- ΔpEC50 values (each mutant value - WT average), Mean ([4]; C178S, each row one experiment (N=2), 3 replicates): 0.02169 and 0.1822
- EC50 ([4]; C178S, each row one experiment (N=2), 3 replicates, read-out: pEC50 values, Mean (converted)): 395 nM and 273 nM
- EC50 ([4]; C178S, n=2, read-out: EC50): 328 nM
- Emax ([4]; C178S, n=2, read-out: Span ± SEM (Emax normalized to β-PEA)): 98.4 ± 1.77%
- Emax values, Mean ([4]; C178S, β-PEA = 100, each row one experiment (N=2), 3 replicates): 100.127
- Emax ([4]; C178S, β-PEA = 100, each row one experiment (N=2), 3 replicates, read-out: Emax values, Mean): 96.6%
- C178S - Normalized Luminescence Counts (N=2) ([4]; M = -5): 91.979 and 95.8576 and 102.026 and 75.3904 and 102.974 and 107.581
- C178S - Normalized Luminescence Counts (N=2) ([4]; M = -5.522): 87.8668 and 77.3994 and 76.8387 and 82.4508 and 101.179 and 88.1949
- C178S - Normalized Luminescence Counts (N=2) ([4]; M = -6): 67.8199 and 64.4086 and 66.1843 and 84.2459 and 87.7162 and 94.2082
- C178S - Normalized Luminescence Counts (N=2) ([4]; M = -6.522): 42.5859 and 50.2963 and 40.4364 and 48.0464 and 47.119 and 50.6791
- C178S - Normalized Luminescence Counts (N=2) ([4]; M = -7): 17.0716 and 19.2212 and 22.0717 and 25.7583 and 28.0918 and 27.3439
